This passage reports IC50 results from US6469008B2, “(R)-hydroxynefazodone antipsychotic therapy” (Sepracor Inc., priority 1999, dated 2002).

The target in test [1] is T1, serotonin uptake by rat cortex synaptosomes (Rattus norvegicus, UniProt P31652).
T1 construct: from tissue; host or cells: male Wistar rat cortex synaptosomes
As to the kind of experiment: Serotonin uptake functional assay. The test is classed as biochemical. Particulars: [3H]5-hydroxytryptamin, read-out: Monoamine Neuronal Transport 5-HT Uptake (IC50). On the procedure:
Serotonin uptake functional assay
Characterization of serotonin uptake is performed using synaptosomes isolated in a 0.32 M sucrose buffer from a male Wistar rat cortex. The uptake of radiolabelled serotonin by synaptosomes (100 μg of proteins/point) is allowed by incubating them for 15 minutes at 37° C. in presence of test compounds and [3H]5-hydroxytryptamin (0.1 μCi/point). The experiment is performed in a deep well.
Synaptosomes and [3H]5-hydroxytryptamin are prepared in a Krebs buffer pH 7.4 containing 25 mM NaHCO3, 11 mM glucose and 50 μM ascorbic acid. This incubation buffer is oxygenated during 5 minutes before incubation. Basal control is incubated for 15 minutes at 4° C. in order to avoid any uptake. Following this incubation the uptake is stopped by filtration through an “unifilter 96-wells GF”Packard plate washed with Krebs buffer containing 25 mM NaHCO3 in order to eliminate the free [3H]5-hydroxytryptamin. The radioactivity associated to the synaptosomes retained onto the unifilter corresponding to the uptake is then measured with a microplate scintillation counter Topcount, Packard using a scintillation liquid microscint 0, Packard.
[See Perovics and Müiller “Pharmacological profile of hypericum extract: effect on serotonin uptake by postsynaptic receptors”, Arzeim Forsch/Drug Res. 45 1145-1148 (1995).]

Another test has as its target T2, Human D2 receptor (Homo sapiens, UniProt P14416).
T2 construct: expressed in transfected cells; host or cells: A9L cells
The experiment in a line: Dopamine D2 receptor binding. Particulars: [3H]spiperone, transfected A9L cell membranes. On the procedure: (§1) Dopamine and serotonin receptor binding assays were performed in a standard manner with the incubation of membrane preparations in an assay buffer in the presence of a known radioactively labeled specific ligand for the receptor subtypes. Nonspecific binding was determined by assessing binding in the presence of excess ligand. Specific binding was measured as the total labeled ligand bound after the nonspecific binding was subtracted. The effect of the tested agents was measured by determining the competition for the receptor binding across a concentration range. Subsequently, an IC50 was determined for the agents tested. More specific details are provided below for several of the assays performed.
(§2) Aliquots of transfected A9L cell membrane preparations corresponding to 20-40 μg protein are incubated for 60 min at 22° C. in 250 μl of 50 mM Tris-HCl buffer (pH 7.4) containing 120 mM NaCl, 5 mM KCl, 5 mM MgCl2, 1 mM EDTA, 0.3 nM [^3H]spiperone and increasing concentrations of the competing drugs. Nonspecific binding is determined in the presence of 10 μM (+)butaclamol. After incubation, the samples are filtered rapidly under vacuum through glass fiber filters (GF/B, Packard) and rinsed several times with ice-cold 50 mM Tris-HCl using a cell harvester (Packard). Bound radioactivity is measured with a scintillation counter (Topcount, Packard) using a liquid scintillation cocktail (Microscint 0, Packard). The reference compound for this assay is (+)butaclamol.

Another test has as its target T3, 5-HT1B (Homo sapiens, UniProt P28222).
T3 construct: host or cells: membrane preparations
The experiment in a line: 5-HT1B receptor binding. Particulars: read-out: Serotonin Receptor Binding 5-HT1B (IC50). The protocol:
as §1

The target in a further test is T4, 5-HT6 (Homo sapiens, UniProt P50406).
T4 construct: host or cells: membrane preparations
T4 sequence (P50406 whole entry, species assumed): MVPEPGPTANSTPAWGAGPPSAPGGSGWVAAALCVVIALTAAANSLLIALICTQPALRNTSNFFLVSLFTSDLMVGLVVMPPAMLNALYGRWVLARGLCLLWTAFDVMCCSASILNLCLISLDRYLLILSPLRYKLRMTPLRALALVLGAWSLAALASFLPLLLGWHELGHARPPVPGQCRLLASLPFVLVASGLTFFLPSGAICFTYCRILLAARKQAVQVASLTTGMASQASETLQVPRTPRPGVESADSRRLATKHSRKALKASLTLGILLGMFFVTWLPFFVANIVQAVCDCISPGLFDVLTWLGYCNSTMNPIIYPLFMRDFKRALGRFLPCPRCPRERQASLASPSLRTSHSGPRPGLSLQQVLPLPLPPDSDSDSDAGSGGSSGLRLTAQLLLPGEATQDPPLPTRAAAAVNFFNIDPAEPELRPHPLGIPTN
The experiment in a line: 5-HT6 receptor binding. Particulars: read-out: Serotonin Receptor Binding 5-HT6 (IC50). On the procedure: as §1

For another test, the target named is T5, 5-HT7 (Homo sapiens, UniProt P34969).
T5 construct: host or cells: membrane preparations
T5 sequence (P34969 whole entry, species assumed): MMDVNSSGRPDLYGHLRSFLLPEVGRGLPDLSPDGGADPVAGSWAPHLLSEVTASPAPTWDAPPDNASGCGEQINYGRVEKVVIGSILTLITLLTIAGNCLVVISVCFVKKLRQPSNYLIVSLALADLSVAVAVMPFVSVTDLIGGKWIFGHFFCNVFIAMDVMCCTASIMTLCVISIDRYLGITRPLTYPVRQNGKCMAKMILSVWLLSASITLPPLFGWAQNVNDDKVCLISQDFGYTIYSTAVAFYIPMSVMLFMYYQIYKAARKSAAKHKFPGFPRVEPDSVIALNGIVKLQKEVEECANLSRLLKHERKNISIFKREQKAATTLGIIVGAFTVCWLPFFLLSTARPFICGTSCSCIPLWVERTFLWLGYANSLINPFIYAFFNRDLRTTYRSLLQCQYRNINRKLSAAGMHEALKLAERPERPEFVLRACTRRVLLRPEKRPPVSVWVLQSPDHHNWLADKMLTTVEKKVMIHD
As to the kind of experiment: 5-HT7 receptor binding. Particulars: read-out: Serotonin Receptor Binding 5-HT7 (IC50). The protocol: as §1

In the next test the target is T6, 5-HT2B (Homo sapiens, UniProt P41595).
T6 construct: host or cells: membrane preparations
T6 sequence (P41595 whole entry, species assumed): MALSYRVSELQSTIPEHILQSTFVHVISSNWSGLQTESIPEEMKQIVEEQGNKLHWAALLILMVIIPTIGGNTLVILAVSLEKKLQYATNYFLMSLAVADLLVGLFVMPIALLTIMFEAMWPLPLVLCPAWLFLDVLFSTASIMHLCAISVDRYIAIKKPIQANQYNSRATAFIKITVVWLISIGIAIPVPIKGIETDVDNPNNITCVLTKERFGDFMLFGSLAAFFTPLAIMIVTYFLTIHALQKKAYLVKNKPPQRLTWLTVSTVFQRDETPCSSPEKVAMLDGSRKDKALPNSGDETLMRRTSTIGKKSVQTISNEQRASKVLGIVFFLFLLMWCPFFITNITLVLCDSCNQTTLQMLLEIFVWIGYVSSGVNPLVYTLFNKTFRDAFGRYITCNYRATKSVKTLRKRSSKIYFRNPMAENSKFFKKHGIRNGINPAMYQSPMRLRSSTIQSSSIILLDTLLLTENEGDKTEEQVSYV
As to the kind of experiment: 5-HT2B receptor binding. Particulars: read-out: Serotonin Receptor Binding 5-HT2B (IC50). On the procedure:
as §1

The target of test [2] is T7, norepinephrine uptake by rat hypothalamus synaptosomes (Rattus norvegicus, UniProt Q63380).
T7 construct: tissue Cerep; host or cells: male Wistar rat hypothalamus synaptosomes
T7 sequence (Q63380 1-617): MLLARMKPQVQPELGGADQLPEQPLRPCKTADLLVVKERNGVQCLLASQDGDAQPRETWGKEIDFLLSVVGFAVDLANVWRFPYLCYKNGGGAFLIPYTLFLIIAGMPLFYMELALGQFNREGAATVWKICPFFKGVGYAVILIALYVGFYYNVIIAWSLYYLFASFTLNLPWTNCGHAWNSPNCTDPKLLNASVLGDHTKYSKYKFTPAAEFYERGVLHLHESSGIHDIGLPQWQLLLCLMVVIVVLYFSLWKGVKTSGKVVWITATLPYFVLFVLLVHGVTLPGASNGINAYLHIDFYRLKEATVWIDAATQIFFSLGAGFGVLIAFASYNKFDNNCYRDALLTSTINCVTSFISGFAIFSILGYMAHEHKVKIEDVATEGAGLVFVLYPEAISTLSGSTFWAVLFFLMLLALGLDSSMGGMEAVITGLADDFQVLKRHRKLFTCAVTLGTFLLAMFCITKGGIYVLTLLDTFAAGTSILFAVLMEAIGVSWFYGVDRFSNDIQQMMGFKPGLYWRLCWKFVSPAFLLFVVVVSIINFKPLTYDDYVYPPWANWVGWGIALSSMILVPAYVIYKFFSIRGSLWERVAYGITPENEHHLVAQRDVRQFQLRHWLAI
As to the kind of experiment: Norepinephrine uptake functional assay. The format is biochemical. Particulars: [3H]-norepinephrine, read-out: Monoamine Neuronal Transport NE uptake (IC50). On the procedure: Norepinephrine uptake functional assay
Characterization of norepinephrine uptake is performed using synaptosomes isolated at Cerep in a 0.32 M sucrose buffer from a male Wistar rat hypothalamus. The uptake of radiolabeled norepinephrine by synaptosomes (100 μg of proteins/point) is allowed by incubating them for 20 minutes at 37° C. in presence of test compounds and [3H]-norepinephrine (0.1 μCi/point). The experiment is performed in a deep well.
Synaptosomes and [3H]-norepinephrine are prepared in a Krebs buffer pH 7.4 containing 25 mM NaHCO3, 11 mM glucose and 50 μM ascorbic acid. This incubation buffer is oxygenated during 5 minutes before incubation. Basal control is incubated for 20 minutes at 4° C. in order to avoid any uptake. Following this incubation the uptake is stopped by filtration through an “unifilter 96-wells GFB” Packard plate washed with Krebs buffer containing 25 mM NaHCO3 in order to eliminate the free [3H]-norepinephrine. The radioactivity associated to the synaptosomes retained onto the unifilter corresponding to the uptake is then measured with a microplate scintillation counter Topcount, Packard using a scintillation liquid microscint 0, Packard.
[See Perovics and Müiller, op.cit. (1995).]

The target of a further test is T8, Human D4.4 receptor (Homo sapiens, UniProt P21917).
T8 construct: expressed in transfected cells; host or cells: CHO cells
T8 sequence (P21917 1-419): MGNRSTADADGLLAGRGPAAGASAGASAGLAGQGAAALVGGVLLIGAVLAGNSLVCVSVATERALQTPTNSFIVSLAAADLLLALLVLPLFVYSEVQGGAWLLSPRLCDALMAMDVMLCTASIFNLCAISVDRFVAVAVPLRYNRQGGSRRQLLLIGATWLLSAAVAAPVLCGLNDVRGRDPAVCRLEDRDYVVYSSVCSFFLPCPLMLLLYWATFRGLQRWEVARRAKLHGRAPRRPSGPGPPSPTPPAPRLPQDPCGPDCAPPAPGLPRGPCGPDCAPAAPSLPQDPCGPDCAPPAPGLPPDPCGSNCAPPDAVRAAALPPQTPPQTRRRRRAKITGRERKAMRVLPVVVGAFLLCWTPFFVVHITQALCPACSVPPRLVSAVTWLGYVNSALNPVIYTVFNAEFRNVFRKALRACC
The experiment in a line: Dopamine D4 receptor binding (head prints D). Particulars: head prints only D. The protocol: as §1
as §2, with “transfected CHO” for “transfected A9L”, “to 100” for “to 20-40”, “is clozapine.” for “is (+)butaclamol.”

T1 sequence (P31652 whole entry): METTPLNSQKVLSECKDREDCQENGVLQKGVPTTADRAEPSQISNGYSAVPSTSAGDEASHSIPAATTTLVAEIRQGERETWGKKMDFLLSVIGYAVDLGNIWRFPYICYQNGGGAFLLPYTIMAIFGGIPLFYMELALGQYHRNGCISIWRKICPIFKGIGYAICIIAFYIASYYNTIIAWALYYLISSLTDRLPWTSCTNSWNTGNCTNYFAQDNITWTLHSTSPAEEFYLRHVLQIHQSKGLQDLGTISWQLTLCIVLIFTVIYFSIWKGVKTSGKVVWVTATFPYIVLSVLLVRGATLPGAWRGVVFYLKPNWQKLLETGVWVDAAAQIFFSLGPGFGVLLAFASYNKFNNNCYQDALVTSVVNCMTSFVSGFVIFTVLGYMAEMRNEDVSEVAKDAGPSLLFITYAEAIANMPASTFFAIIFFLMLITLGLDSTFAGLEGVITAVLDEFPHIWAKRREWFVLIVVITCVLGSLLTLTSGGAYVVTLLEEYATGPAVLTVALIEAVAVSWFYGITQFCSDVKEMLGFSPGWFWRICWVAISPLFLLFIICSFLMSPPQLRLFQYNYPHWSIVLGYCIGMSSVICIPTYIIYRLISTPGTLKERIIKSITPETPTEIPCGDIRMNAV
T3 sequence (P28222 whole entry, species assumed): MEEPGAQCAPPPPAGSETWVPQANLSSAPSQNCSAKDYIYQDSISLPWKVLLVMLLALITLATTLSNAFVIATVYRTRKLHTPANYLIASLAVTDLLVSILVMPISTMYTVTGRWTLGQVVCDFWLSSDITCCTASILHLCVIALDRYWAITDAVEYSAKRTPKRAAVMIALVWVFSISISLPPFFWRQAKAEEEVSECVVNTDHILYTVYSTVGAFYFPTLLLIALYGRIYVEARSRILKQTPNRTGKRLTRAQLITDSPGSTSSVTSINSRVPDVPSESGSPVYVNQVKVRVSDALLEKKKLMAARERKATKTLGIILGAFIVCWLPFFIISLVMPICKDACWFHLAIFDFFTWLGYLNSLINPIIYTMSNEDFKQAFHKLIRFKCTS
T2 sequence (P14416 whole entry): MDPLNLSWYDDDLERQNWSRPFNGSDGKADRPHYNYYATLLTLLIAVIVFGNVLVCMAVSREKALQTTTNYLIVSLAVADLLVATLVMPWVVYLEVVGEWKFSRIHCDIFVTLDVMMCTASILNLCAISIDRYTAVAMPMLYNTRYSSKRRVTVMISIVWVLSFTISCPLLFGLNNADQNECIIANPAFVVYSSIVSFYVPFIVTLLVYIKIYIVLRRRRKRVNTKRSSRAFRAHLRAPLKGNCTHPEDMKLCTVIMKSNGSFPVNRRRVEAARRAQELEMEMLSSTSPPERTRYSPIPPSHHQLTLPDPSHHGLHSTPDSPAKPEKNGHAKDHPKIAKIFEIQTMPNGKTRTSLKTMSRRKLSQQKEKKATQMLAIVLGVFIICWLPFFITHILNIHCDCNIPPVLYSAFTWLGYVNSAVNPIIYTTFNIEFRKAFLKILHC

As to `C[C@H](O)c1nn(CCCN2CCN(c3cccc(Cl)c3)CC2)c(=O)n1CCOc1ccccc1` [(S)-OH, (S)-2-{3-[4-(3-Chlorophenyl)-1-piperazinyl]propyl}-4-(2-phenoxyethyl)-5-[1-(hydroxy)-ethyl]-2,4-dihydro-[1,2,4]triazol-3-one], the IC50 (commonly the concentration needed to halve the response being measured) in test [1] is 790 nM; on Human D2 receptor, 788 nM; at 5-HT1B it was 2840 nM; at 5-HT6, 489 nM; on 5-HT7, 60 nM; at 5-HT2B it was 41 nM. Further, the IC50 in test [2] was 1500 nM; at Human D4.4 receptor, 994 nM.
`CC(O)c1nn(CCCN2CCN(c3cccc(Cl)c3)CC2)c(=O)n1CCOc1ccccc1` (racemic) [(RS)-OH, 2-[3-[4-(3-chlorophenyl)1-piperazinyl]propyl]-5-(1-hydroxyethyl)-2,4-dihydro-4-(phenoxyethyl)-3H-1,2,4-triazol-3-one, reference compound]: the IC50 worked out at 500 nM in test [1]; 1420 nM at Human D2 receptor; 4550 nM on 5-HT1B; 856 nM on 5-HT6; 61 nM at 5-HT7; 34 nM on 5-HT2B. Further, the values for the IC50 (in test [2]; on Human D4.4 receptor) were 1000 nM and 1310 nM, respectively.
Regarding `C[C@@H](O)c1nn(CCCN2CCN(c3cccc(Cl)c3)CC2)c(=O)n1CCOc1ccccc1` [(R)-OH, (R)-hydroxynefazodone], the IC50 in test [1] was 640 nM; on Human D2 receptor, 1690 nM; at 5-HT1B it was 3610 nM; on 5-HT6, 1020 nM; on 5-HT7 it was 71 nM; on 5-HT2B it was 28 nM. The IC50 in test [2] is 1200 nM; on Human D4.4 receptor, 1910 nM.
